Key:
Fisher 344 rats [1] = assay: EEG (electropharmacogram) in freely moving rats, Example 1; format: in vivo, rat; conditions: oral gavage, 5-65 min after administration, FIG. 1
Experimental: Fisher 344 rats (11 months of age and day-night converted, weight about 350-400 g, provided by Charles River Laboratories, D-97633, Sulzfeld) were used in a series of experiments on the effects of various herbal and pharmaceutical products on central nervous system activity. Products were provided to the test subjects orally (gavage).
EEG signals were recorded by telemetry from 4 implanted electrodes in the frontal cortex, hippocampus and striatum of freely moving rats from inside a totally copper shielded room. Signals were collected in sweeps of 4 second duration and Fast Fourier transformed using a Hanning window. EEG signals were recorded over a period starting 5 minutes after administration of the test substances, and ending 65 minutes after administration of the test substances. Sampling frequency was 512 Hz. […] In an off-line procedure the spectra were averaged to give longer periods for further analysis and data presentation. Spectral activity within the frontal cortex, hippocampus, striatum and reticular formation was recorded.

Fisher 344 rats [2] = assay: EEG in freely moving rats, two recording periods, Example 2; format: in vivo, rat; conditions: oral, FIG. 2B/2C, period not separated
Experimental: Products were provided to the test subjects orally (gavage).
EEG signals were recorded by telemetry from 4 implanted electrodes in the frontal cortex, hippocampus and striatum of freely moving rats from inside a totally copper shielded room.

brain wave activity = assay: General statements on CNS activity, equivalence, onset and duration after ingestion; format: in vivo
acetylcholinesterase = acetylcholinesterase (Homo sapiens, UniProt P22303); conditions: cited from earlier work
MAOA = target: T1, MAOA (Homo sapiens, UniProt P21397); conditions: said to underlie anti-depressant-like effect; cited from earlier work
T1 sequence (P21397 1-527): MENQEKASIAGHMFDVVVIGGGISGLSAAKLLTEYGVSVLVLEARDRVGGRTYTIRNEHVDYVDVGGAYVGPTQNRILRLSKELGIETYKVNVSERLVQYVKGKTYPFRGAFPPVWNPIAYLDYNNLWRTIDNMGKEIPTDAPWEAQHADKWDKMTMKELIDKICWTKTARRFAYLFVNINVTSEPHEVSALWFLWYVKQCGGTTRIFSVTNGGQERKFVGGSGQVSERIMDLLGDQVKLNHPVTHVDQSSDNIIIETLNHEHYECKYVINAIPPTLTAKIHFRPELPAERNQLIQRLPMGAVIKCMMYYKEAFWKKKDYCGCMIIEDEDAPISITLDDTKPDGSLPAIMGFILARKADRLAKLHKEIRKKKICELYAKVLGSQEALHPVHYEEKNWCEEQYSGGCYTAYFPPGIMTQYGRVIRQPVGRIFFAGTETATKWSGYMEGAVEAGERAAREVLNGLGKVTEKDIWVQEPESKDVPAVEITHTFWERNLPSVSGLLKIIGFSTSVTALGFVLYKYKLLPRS

Fisher 344 rats [3] = assay: EEG in rats administered mango leaf extract and/or caffeine, Example 5; format: in vivo, rat; conditions: 0.50 mg/kg oral
Description: After automatic artefact rejection, signals were collected in sweeps of 4 s duration and Fast Fourier transformed using a Hanning window. […] Nine adult male Fisher 344 rats (5 months of age and day-night converted, weight about 350-400 g, were implanted with electrodes into the brain and were given two weeks for recovery from surgery. Three animals dropped the implant after performance of a placebo series. […] A crossover design with at least three days of drug holidays in between drug administrations was used. […] The animals were dosed orally at a constant volume of 1.0 ml/kg per kg body weight. The dosage administered to each animal was determined every day by the weight of that animal at the time of administration. Data were averaged from 5-9 animals, and are expressed as mean values±S.E.M.

[4] = test system: pyramidal cells in hippocampus slices of rat brains; assay: Ex vivo population spikes in hippocampal slice preparation, Example 6
Experimental: Hippocampus slices of rat brains were tested. After daily administration of trial medication for one week, 4 animals were sacrificed under deep anesthesia and the hippocampus was removed and chopped by a vibrating razor blade to give 6 slices of about […] thickness per animal. Slices were taken one day after the last treatment. After adaptation to artificial cerebrospinal fluid for one hour, slices were transferred to an incubation chamber and superfused with cerebrospinal fluid at 35° C. Schaffer collaterals are branches extending from the axons of CA3 pyramidal cells in the hippocampus. Schaffer collaterals project to the CA1 area of the hippocampus, and are an integral part of memory formation. The Schaffer Collaterals were stimulated by single stimuli or theta burst stimuli, where theta burst stimuli are short bursts of stimulation at high frequencies, applied 5 times per second.

Chain of acetylcholinesterase (P22303 32-614, species assumed): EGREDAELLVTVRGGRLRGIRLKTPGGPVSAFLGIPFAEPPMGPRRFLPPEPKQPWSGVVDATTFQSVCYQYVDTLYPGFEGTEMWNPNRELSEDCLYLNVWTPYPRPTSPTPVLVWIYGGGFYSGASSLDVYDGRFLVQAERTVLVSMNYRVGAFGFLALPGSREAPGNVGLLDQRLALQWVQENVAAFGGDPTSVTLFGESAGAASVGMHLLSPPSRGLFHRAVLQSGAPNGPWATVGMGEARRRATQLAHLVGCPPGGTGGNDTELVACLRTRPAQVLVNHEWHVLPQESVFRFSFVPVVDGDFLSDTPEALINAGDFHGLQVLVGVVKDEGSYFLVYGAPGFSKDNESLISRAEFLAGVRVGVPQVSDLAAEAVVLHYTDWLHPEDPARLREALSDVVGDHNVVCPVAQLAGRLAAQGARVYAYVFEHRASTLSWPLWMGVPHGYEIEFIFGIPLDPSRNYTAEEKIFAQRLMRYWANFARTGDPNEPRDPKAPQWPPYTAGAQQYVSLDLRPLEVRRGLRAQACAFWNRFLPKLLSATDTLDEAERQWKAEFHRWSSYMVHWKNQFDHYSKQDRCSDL

| SMILES | CNS profile (EEG) compared with reference substances (Fisher 344 rats [1]) | gamma wave activity in the striatum (Fisher 344 rats [2]) | caffeine-type side-effects (nausea, fast or irregular pulse, irritability, loss of concentration) (brain wave activity; even at high servings or doses) | dose dependence of CNS stimulation beyond a threshold (brain wave activity; in vivo) | calming activity when ingested (brain wave activity; unlike caffeine) | acetylcholinesterase inhibition (acetylcholinesterase) | MAOA inhibition (MAOA) | delta waves in the striatum (Fisher 344 rats [3]; FIG. 6) | delta, theta and beta power in the hippocampus (Fisher 344 rats [3]; FIG. 6) | delta power in the frontal cortex (Fisher 344 rats [3]; FIG. 6, p<0.1) | delta power in the frontal cortex and reticular formation (Fisher 344 rats [3]; from the second hour after administration on) | alpha2 power (Fisher 344 rats [3]; last hour, p<0.05 in the reticular formation) | Amplitude (population spike), Single Stimulation ([4]; SS, slices after one week daily dosing, caffeine 0.5 mg/kg, mango leaf extract 25 mg/kg) | Amplitude (population spike), Theta Burst Stimulation ([4]; TBS, slices after one week daily dosing, caffeine 0.5 mg/kg, mango leaf extract 25 mg/kg) | pyramidal cell activity ([4]; Table 1 and FIG. 11) |
| --- | --- | --- | --- | --- | --- | --- | --- | --- | --- | --- | --- | --- | --- | --- | --- |
| O=c1c2cc(O)c(O)cc2oc2cc(O)c([C@@H]3O[C@H](CO)[C@@H](O)[C@H](O)[C@H]3O)c(O)c12 [Mangiferin] | surprisingly similar to the CNS profiles of reference caffeine, citicolin and Guarana | not observed | none of the well-known side-effects | plateau effect | calming, de-stressing activity | acetylcholinesterase inhibiting activity | inhibition of MAOA | – | – | – | – | – | – | – | – |
| Cn1c(=O)c2c(ncn2C)n(C)c1=O [Caffeine] | – | – | – | – | – | – | – | minor but statistically conspicuous decrease | statistically significant attenuation | statistically conspicuous attenuation | statistically significant increases of delta power | increases of alpha2 power were observed except for the striatum | 1.3 (SS) mv | 3.1 (TBS) mv | significantly smaller effect on such activity than mango leaf extract |
